According to paper PMC5513037, “Examining the influence of specificity ligands and ATP-competitive ligands on the overall effectiveness of bivalent kinase inhibitors” (Proteome Science, 2017):

Tests used:
Assay in all cases: KAM-matrix competition in K562 lysate;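 on 0.001 uM KAM: median log10 fold change of treatment over DMSO control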;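 on 0.01 uM KAM: median log10 fold change of treatment over DMSO control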;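 on 0.1 uM KAM: median log10 fold change of treatment over DMSO control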;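 on 1 uM KAM: median log10 fold change of treatment over DMSO control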;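 on 10 uM KAM: median log10 fold change of treatment over DMSO control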
Format in all cases: binding
[1] = molecular target: T1, ACTR2 (Homo sapiens, UniProt P61160);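 on 0.001 uM KAM: median log10 fold change of treatment over DMSO control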;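 on 0.01 uM KAM: median log10 fold change of treatment over DMSO control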;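 on 0.1 uM KAM: median log10 fold change of treatment over DMSO control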;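 on 1 uM KAM: median log10 fold change of treatment over DMSO control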;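 on 10 uM KAM: median log10 fold change of treatment over DMSO control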
T1 construct: endogenous in cells; host or cells: K562
Description: (§1) Supplement 12953_2017_125_MOESM1_ESM.zip/MS_Supp Info.xlsx, sheet "KAM" | column: 10 uM KAM; 1 uM KAM; 0.1 uM KAM; 0.01 uM KAM; 0.001 uM KAM; RB50

[2] = molecular target: T2, CDK14 (Homo sapiens, UniProt O94921)
T2 construct: endogenous in cells; host or cells: K562
Description: as §1

[3] = molecular target: T3, DYRK1A (Homo sapiens, UniProt Q13627)
T3 construct: endogenous in cells; host or cells: K562
Description: as §1

[4] = molecular target: T4, FAM20B (Homo sapiens, UniProt O75063);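 on 0.001 uM KAM: median log10 fold change of treatment over DMSO control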;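 on 0.01 uM KAM: median log10 fold change of treatment over DMSO control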;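 on 0.1 uM KAM: median log10 fold change of treatment over DMSO control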;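 on 1 uM KAM: median log10 fold change of treatment over DMSO control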;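 on 10 uM KAM: median log10 fold change of treatment over DMSO control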
T4 construct: endogenous in cells; host or cells: K562
T4 sequence (O75063 1-409): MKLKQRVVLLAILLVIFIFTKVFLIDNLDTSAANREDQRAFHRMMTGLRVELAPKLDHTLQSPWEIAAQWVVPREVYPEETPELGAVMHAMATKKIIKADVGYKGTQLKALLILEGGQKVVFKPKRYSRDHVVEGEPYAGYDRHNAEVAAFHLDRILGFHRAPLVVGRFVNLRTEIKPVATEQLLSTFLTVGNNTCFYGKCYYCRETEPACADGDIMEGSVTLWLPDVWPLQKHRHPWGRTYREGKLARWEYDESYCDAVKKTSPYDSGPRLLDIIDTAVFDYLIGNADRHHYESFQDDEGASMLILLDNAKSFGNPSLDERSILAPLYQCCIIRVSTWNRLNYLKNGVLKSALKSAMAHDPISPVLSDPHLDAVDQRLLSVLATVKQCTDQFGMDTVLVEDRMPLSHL
Description: as §1

[5] = molecular target: T5, PHKG1 (Homo sapiens, UniProt Q16816)
T5 construct: endogenous in cells; host or cells: K562
Description: as §1

[6] = molecular target: T6, PLK4 (Homo sapiens, UniProt O00444)
T6 construct: endogenous in cells; host or cells: K562
T6 sequence (O00444 1-970): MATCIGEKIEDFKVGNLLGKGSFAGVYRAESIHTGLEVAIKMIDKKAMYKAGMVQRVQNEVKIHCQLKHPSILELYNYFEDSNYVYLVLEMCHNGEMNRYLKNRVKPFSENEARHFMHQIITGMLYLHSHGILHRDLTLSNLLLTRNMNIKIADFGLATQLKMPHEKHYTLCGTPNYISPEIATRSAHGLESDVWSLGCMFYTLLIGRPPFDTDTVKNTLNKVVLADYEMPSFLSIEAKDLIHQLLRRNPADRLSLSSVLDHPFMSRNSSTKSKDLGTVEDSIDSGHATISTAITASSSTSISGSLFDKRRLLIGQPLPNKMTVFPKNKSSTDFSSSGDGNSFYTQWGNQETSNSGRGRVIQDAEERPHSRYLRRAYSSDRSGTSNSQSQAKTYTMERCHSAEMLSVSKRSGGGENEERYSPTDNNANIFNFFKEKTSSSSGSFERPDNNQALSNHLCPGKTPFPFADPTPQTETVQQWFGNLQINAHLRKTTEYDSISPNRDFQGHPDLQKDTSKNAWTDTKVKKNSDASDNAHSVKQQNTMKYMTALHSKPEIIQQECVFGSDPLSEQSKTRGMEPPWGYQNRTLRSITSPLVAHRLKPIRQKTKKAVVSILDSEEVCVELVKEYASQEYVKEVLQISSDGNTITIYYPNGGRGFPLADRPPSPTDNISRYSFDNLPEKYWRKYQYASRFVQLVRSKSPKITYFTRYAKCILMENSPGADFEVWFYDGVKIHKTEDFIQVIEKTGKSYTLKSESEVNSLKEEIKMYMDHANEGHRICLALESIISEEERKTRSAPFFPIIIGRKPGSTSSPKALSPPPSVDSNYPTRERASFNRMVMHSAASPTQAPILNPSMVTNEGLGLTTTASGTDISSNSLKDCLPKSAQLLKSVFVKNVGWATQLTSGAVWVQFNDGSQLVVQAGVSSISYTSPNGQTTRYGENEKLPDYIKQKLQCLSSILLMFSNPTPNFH
Description: as §1

[7] = molecular target: T7, RET (Homo sapiens, UniProt P07949)
T7 construct: endogenous in cells; host or cells: K562
Description: as §1

[8] = KAM 0.001-10 uM, read-out: RB50 (the source's name)
[9] = read-out: RB50 (the source's name)

T5 sequence (Q16816 whole entry): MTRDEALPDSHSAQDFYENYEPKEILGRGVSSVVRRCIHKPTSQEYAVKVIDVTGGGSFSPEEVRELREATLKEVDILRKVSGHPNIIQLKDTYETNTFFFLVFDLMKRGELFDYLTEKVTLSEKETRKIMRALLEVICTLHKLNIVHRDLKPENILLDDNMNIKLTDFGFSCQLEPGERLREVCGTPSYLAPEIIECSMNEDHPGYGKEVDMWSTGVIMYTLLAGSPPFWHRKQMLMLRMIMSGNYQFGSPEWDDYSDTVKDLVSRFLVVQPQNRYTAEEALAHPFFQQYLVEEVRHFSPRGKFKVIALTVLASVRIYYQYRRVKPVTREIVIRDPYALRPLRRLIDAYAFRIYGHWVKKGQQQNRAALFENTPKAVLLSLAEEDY
T2 sequence (O94921 whole entry): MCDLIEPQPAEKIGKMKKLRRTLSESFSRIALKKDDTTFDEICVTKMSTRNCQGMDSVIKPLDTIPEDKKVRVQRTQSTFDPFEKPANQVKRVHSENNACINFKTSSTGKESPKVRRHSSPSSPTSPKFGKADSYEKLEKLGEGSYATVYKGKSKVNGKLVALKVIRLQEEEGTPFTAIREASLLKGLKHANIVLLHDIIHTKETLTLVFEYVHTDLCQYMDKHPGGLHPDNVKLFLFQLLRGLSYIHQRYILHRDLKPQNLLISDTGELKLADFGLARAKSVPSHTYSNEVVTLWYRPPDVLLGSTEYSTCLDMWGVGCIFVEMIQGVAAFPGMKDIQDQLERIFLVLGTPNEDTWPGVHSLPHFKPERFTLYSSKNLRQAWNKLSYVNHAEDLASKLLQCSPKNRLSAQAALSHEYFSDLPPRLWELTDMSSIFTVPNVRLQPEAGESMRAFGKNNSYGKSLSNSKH
T7 sequence (P07949 29-1114): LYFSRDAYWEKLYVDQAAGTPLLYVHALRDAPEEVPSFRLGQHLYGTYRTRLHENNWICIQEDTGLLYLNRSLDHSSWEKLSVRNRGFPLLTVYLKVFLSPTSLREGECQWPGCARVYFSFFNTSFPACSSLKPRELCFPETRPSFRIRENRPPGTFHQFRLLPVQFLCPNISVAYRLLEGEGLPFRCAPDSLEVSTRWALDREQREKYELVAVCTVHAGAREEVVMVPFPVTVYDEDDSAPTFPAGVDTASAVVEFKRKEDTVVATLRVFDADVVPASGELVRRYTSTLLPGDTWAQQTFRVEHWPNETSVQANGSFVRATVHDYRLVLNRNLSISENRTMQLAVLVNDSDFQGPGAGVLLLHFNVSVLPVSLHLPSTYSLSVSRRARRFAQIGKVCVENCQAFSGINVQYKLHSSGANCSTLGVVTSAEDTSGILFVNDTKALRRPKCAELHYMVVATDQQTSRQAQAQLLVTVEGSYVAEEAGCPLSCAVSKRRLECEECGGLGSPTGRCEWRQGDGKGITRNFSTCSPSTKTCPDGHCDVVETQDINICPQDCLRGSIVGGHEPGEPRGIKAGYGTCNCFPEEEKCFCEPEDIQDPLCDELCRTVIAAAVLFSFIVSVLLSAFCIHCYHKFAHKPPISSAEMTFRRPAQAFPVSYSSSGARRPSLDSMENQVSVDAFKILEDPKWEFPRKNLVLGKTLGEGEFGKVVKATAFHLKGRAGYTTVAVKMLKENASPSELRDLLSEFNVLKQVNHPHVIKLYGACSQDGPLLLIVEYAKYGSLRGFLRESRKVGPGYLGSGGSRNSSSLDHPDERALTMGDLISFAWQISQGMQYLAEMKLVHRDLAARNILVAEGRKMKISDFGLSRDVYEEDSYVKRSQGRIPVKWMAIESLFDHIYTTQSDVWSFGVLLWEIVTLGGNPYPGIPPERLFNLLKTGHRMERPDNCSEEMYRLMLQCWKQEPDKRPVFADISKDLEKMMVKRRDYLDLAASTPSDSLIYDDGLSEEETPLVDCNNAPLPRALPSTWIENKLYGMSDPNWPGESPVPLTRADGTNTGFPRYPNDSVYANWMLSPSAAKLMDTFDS

Question: Which IC50 [1, 8] does the source give for N#CCc1ccc(Nc2nc(NCCCN)cc(Nc3cc(C4CC4)[nH]n3)n2)cc1 [KAM] here?
Answer: > 10000 nM

Question: What about the “0.001 uM KAM” value ([1]; relative to 0 uM KAM = 0) of the same compound?
Answer: -0.002123

Question: And the “0.01 uM KAM” value ([1]; relative to 0 uM KAM = 0)?
Answer: 0.01622

Question: What about the “0.1 uM KAM” value ([1]; relative to 0 uM KAM = 0) of the same compound?
Answer: 0.01541

Question: What about the “1 uM KAM” value ([1]; relative to 0 uM KAM = 0) of the same compound?
Answer: 0.07708

Question: And the “10 uM KAM” value ([1]; relative to 0 uM KAM = 0)?
Answer: 0.05031

Question: What about the “median Log10 fold change” value ([2]; 0.001 uM KAM) of the same compound?
Answer: 0.09538

Question: What about the “median Log10 fold change” value ([2]; 0.01 uM KAM) of the same compound?
Answer: 0.03255

Question: And the “median Log10 fold change” value ([2]; 0.1 uM KAM)?
Answer: -0.148

Question: What about the “median Log10 fold change” value ([2]; 1 uM KAM) of the same compound?
Answer: -0.2642

Question: What about the “median Log10 fold change” value ([2]; 10 uM KAM) of the same compound?
Answer: -0.4049

Question: What about the IC50 [2, 9] of the same compound?
Answer: 1660 nM

Question: And the “median Log10 fold change” value ([3]; 0.001 uM KAM)?
Answer: -0.05439

Question: What about the “median Log10 fold change” value ([3]; 0.01 uM KAM) of the same compound?
Answer: -0.0501

Question: What about the “median Log10 fold change” value ([3]; 0.1 uM KAM) of the same compound?
Answer: -0.184

Question: What about the “median Log10 fold change” value ([3]; 1 uM KAM) of the same compound?
Answer: -0.2641

Question: What about the “median Log10 fold change” value ([3]; 10 uM KAM) of the same compound?
Answer: -0.4024

Question: What about the IC50 [3, 9] of the same compound?
Answer: 1470 nM

Question: What about the IC50 [4, 8] of the same compound?
Answer: > 10000 nM

Question: What about the “0.001 uM KAM” value ([4]; relative to 0 uM KAM = 0) of the same compound?
Answer: -0.03245

Question: And the “0.01 uM KAM” value ([4]; relative to 0 uM KAM = 0)?
Answer: -0.03308

Question: What about the “0.1 uM KAM” value ([4]; relative to 0 uM KAM = 0) of the same compound?
Answer: -0.01554

Question: And the “1 uM KAM” value ([4]; relative to 0 uM KAM = 0)?
Answer: -0.05098

Question: What about the “10 uM KAM” value ([4]; relative to 0 uM KAM = 0) of the same compound?
Answer: 0.1003

Question: What about the “median Log10 fold change” value ([5]; 0.001 uM KAM) of the same compound?
Answer: -0.0673

Question: And the “median Log10 fold change” value ([5]; 0.01 uM KAM)?
Answer: -0.04082

Question: What about the “median Log10 fold change” value ([5]; 0.1 uM KAM) of the same compound?
Answer: -0.2109

Question: And the “median Log10 fold change” value ([5]; 1 uM KAM)?
Answer: -0.4403

Question: What about the “median Log10 fold change” value ([5]; 10 uM KAM) of the same compound?
Answer: -0.5431

Question: What about the IC50 [5, 9] of the same compound?
Answer: 329 nM

Question: What about the “median Log10 fold change” value ([6]; 0.001 uM KAM) of the same compound?
Answer: -0.0157

Question: And the “median Log10 fold change” value ([6]; 0.01 uM KAM)?
Answer: 0.006981

Question: And the “median Log10 fold change” value ([6]; 0.1 uM KAM)?
Answer: -0.1724

Question: What about the “median Log10 fold change” value ([6]; 1 uM KAM) of the same compound?
Answer: -0.3044

Question: And the “median Log10 fold change” value ([6]; 10 uM KAM)?
Answer: -0.3267

Question: What about the IC50 [6, 9] of the same compound?
Answer: 1400 nM

Question: What about the “median Log10 fold change” value ([7]; 0.001 uM KAM) of the same compound?
Answer: -0.129

Question: What about the “median Log10 fold change” value ([7]; 0.01 uM KAM) of the same compound?
Answer: -0.007083

Question: What about the “median Log10 fold change” value ([7]; 0.1 uM KAM) of the same compound?
Answer: -0.09548

Question: What about the “median Log10 fold change” value ([7]; 1 uM KAM) of the same compound?
Answer: -0.3474

Question: What about the “median Log10 fold change” value ([7]; 10 uM KAM) of the same compound?
Answer: -0.5381

Question: What about the IC50 [7, 9] of the same compound?
Answer: 908 nM
